Some test systems named below: 786-0; ACHN; COLO 205; HCC 2998; HT-29; IGROV-1; K562; KM12; MOLT-4; Malme-3M; OVCAR-4; OVCAR-8; SF-539; SK-MEL-2; SNB-78; UACC-257; A498; SNB-75; Hs-578T; MDA-MB-231.
What all share (experiment): NCI anticancer screen, dose series, 48 h

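Growth conditions: 96-well plates. Treatment: test compound, 48 hours, 5 concentrations. Analysis: linear interpolation between bracketing concentrations; unreached endpoints set to highest concentration. The concentration for 50% growth inhibition is given as GI50.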 The source made the active and inactive calls. No stated cut-off is given here; in the data, active = GI50 up to about 1.1 µM and inactive = higher.

The source of these data is ChEMBL document CHEMBL1201862, “PubChem BioAssay data set” (2004).

For `COc1ccc(-c2onc(-c3c(C)cc(C)cc3C)c2C2=NCCCN2)cc1`, the GI50 in the assay with 786-0 was 31.8 µM (inactive); with ACHN, 64.1 µM (inactive); in the assay with COLO 205, 27.7 µM (inactive); with HCC 2998, > 100 µM (inactive); with HT-29 it was 31.2 µM (inactive); with IGROV-1, > 100 µM (inactive). For the same compound, the GI50 in the assay with K562 is 28.8 µM (inactive); with KM12 it was 46.3 µM (inactive); with MOLT-4, 41 µM (inactive); with Malme-3M, 41.9 µM (inactive); with OVCAR-4 it was 49.9 µM (inactive); with OVCAR-8, 58.9 µM (inactive). Further, the GI50 in the assay on SF-539 was 21.6 µM (inactive); with SK-MEL-2, 36.1 µM (inactive); with SNB-78 it was 35.1 µM (inactive); in the assay on UACC-257, 21.1 µM (inactive).

Turning to `OC12c3ccccc3C1CCCCCC21OCCCO1` (stereo unspecified), the GI50 with 786-0, with A498, in the assay with ACHN, in the assay on COLO 205, in the assay with HT-29 and with IGROV-1 was > 100 µM (inactive) each time. Besides, the GI50 in the assay on K562, with KM12, with MOLT-4, with Malme-3M, with OVCAR-4 and in the assay on OVCAR-8 was > 100 µM (inactive) in each case. Moreover, the GI50 in the assay on SF-539, in the assay on SK-MEL-2, with SNB-75, with SNB-78 and in the assay on UACC-257 was > 100 µM (inactive) in each case.

As to `O=C1[C@@H]2C(c3ccccc3[N+](=O)[O-])=NO[C@@H]2C(=O)N1c1ccc(Cc2ccc(N3C(=O)[C@H]4C(c5ccccc5[N+](=O)[O-])=NO[C@H]4C3=O)cc2)cc1`, the GI50 with 786-0, with A498, in the assay with ACHN, with COLO 205, with HCC 2998 and with HT-29 was > 100 µM (inactive) throughout. In addition, the GI50 in the assay on IGROV-1, in the assay with K562, in the assay on KM12, in the assay on MOLT-4, in the assay on Malme-3M and with OVCAR-4 was > 100 µM (inactive) each time. Moreover, the GI50 in the assay with OVCAR-8, in the assay with SF-539, with SNB-75, with SNB-78 and in the assay on UACC-257 was > 100 µM (inactive) throughout.

With `COc1cc(/C=N\O[Si](C)(C)C(C)(C)C)ccc1O[Si](C)(C)C(C)(C)C`, the GI50 with 786-0 is 32.4 µM (inactive); in the assay on ACHN, 51.4 µM (inactive); with COLO 205, > 100 µM (inactive); in the assay with HCC 2998, 24.5 µM (inactive); in the assay with HT-29, 47.3 µM (inactive); with IGROV-1, > 100 µM (inactive). Further, the GI50 was 32.5 µM (inactive) with K562; 83.6 µM (inactive) with KM12; 37.8 µM (inactive) in the assay with MOLT-4; > 100 µM (inactive) with Malme-3M; > 100 µM (inactive) in the assay with OVCAR-4; 64.1 µM (inactive) in the assay on OVCAR-8. Besides, the GI50 in the assay with SF-539 is 41.7 µM (inactive); in the assay on SK-MEL-2 it was 88.9 µM (inactive); in the assay with SNB-75, > 100 µM (inactive); in the assay on SNB-78 it was > 100 µM (inactive); in the assay on UACC-257, > 100 µM (inactive).

Turning to `NC(=O)c1coc(C2OC(CO)C(O)C2O)n1` (stereo unspecified), the GI50 in the assay with 786-0, in the assay on A498, in the assay on ACHN, in the assay with COLO 205, with HCC 2998 and with HT-29 was > 100 µM (inactive) in each case. The GI50 with IGROV-1, with K562, in the assay with KM12, in the assay on MOLT-4, with Malme-3M and in the assay with OVCAR-4 was > 100 µM (inactive) throughout. Moreover, the GI50 in the assay with SF-539, with SK-MEL-2 and with SNB-78 was > 100 µM (inactive) each time.

For the compound `CN(C)[C@@H]1C(O)=C(C(=O)NCNCCCC(=O)O)C(=O)[C@@]2(O)C(O)=C3C(=O)c4c(O)cccc4[C@@](C)(O)[C@H]3C[C@@H]12`, the GI50 with 786-0, with A498, in the assay on ACHN, in the assay on COLO 205, in the assay on HCC 2998 and in the assay with HT-29 was > 100 µM (inactive) throughout. Also, the GI50 in the assay on IGROV-1, in the assay with K562, with KM12, with MOLT-4, with OVCAR-4 and in the assay with OVCAR-8 was > 100 µM (inactive) each time. The GI50 with SF-539, in the assay with SK-MEL-2, with SNB-78 and in the assay with UACC-257 was > 100 µM (inactive) each time.

As to `O=C1c2ccccc2CN1c1ccc(OCCN2CCCCC2)cc1`, the GI50 in the assay on 786-0, in the assay on A498, in the assay on ACHN, with COLO 205, in the assay with HCC 2998 and in the assay with HT-29 was > 10 µM (inactive) each time. In addition, the GI50 in the assay on Hs-578T, in the assay with IGROV-1, with K562, in the assay with KM12, in the assay with MDA-MB-231 and in the assay on MOLT-4 was > 10 µM (inactive) throughout. Moreover, the GI50 in the assay on Malme-3M, with OVCAR-4, in the assay on OVCAR-8, with SF-539, in the assay on SK-MEL-2 and with SNB-75 was > 10 µM (inactive) each time. In addition, in the assay with UACC-257, the GI50 was > 10 µM (inactive).

Consider `CSc1ccc(NC(=O)Nc2cc(C)ccn2)cc1`, for which the GI50 was > 100 µM (inactive) in the assay on 786-0; > 100 µM (inactive) in the assay with A498; > 100 µM (inactive) in the assay with ACHN; > 100 µM (inactive) in the assay with COLO 205; 91.4 µM (inactive) in the assay with HCC 2998; > 100 µM (inactive) in the assay with HT-29. For the same compound, the GI50 in the assay with Hs-578T, in the assay on IGROV-1, with K562, in the assay with KM12, with MDA-MB-231 and with MOLT-4 was > 100 µM (inactive) throughout. In addition, the GI50 was > 100 µM (inactive) in the assay with Malme-3M; > 100 µM (inactive) with OVCAR-4; > 100 µM (inactive) in the assay on OVCAR-8; 2.36 µM (inactive) in the assay with SF-539; > 100 µM (inactive) in the assay on SK-MEL-2; > 100 µM (inactive) with SNB-75. In the assay on UACC-257, the GI50 is > 100 µM (inactive).

On to `COc1ccccc1/C=C/c1nc2ccccc2o1`, for which the GI50 in the assay with 786-0, in the assay on A498, in the assay on ACHN, in the assay on COLO 205, in the assay with HCC 2998 and with HT-29 was > 10 µM (inactive) in each case. Also, the GI50 in the assay with Hs-578T, with IGROV-1, with K562, in the assay with KM12, with MDA-MB-231 and in the assay with MOLT-4 was > 10 µM (inactive) in each case. The GI50 in the assay on Malme-3M, in the assay with OVCAR-4, in the assay on OVCAR-8, in the assay on SF-539, in the assay on SK-MEL-2 and in the assay on SNB-75 was > 10 µM (inactive) each time. Besides, in the assay on UACC-257, the GI50 is > 10 µM (inactive).

For `COc1ccccc1Cn1c2c(c3c(C(=O)NCCN(C)C)c(O)ccc31)C(=O)c1ccccc1C2=O`, the GI50 was 0.409 µM (active) with 786-0; 5.26 µM (inactive) in the assay with A498; 1.64 µM (inactive) with ACHN; 1.94 µM (inactive) in the assay with COLO 205; 1.66 µM (inactive) in the assay on HCC 2998; 1.92 µM (inactive) with HT-29. Also, the GI50 with Hs-578T is 1.9 µM (inactive); with IGROV-1, 1.68 µM (inactive); with K562, 0.977 µM (active); in the assay on KM12, 1.59 µM (inactive); with MDA-MB-231 it was 1.99 µM (inactive); in the assay with MOLT-4 it was 1.06 µM (active). Moreover, the GI50 in the assay on Malme-3M was 1.63 µM (inactive); in the assay with OVCAR-4, 1.65 µM (inactive); with OVCAR-8, 2.14 µM (inactive); in the assay on SF-539, 1.9 µM (inactive); in the assay on SK-MEL-2 it was 1.69 µM (inactive); in the assay with SNB-75, 1.55 µM (inactive). In addition, the GI50 with UACC-257 was 1.79 µM (inactive).

As for `COc1ccc(OC)c2c3c(ccc12)C(c1ccccc1)OC3=O` (stereo unspecified), the GI50 with 786-0 is 60.7 µM (inactive); with A498, 81.7 µM (inactive); in the assay on ACHN, 55.7 µM (inactive); in the assay with COLO 205 it was 54 µM (inactive); with HCC 2998 it was > 100 µM (inactive); in the assay on HT-29 it was 58.3 µM (inactive). For the same compound, the GI50 is > 100 µM (inactive) with IGROV-1; 47.2 µM (inactive) in the assay with K562; 56.5 µM (inactive) in the assay on KM12; 32.9 µM (inactive) with MOLT-4; 59 µM (inactive) with Malme-3M; 70.1 µM (inactive) in the assay with OVCAR-4. Also, the GI50 in the assay on OVCAR-8 is 39.4 µM (inactive); with SK-MEL-2, 55 µM (inactive); in the assay on SNB-75 it was 38.7 µM (inactive); with SNB-78, 12.8 µM (inactive); with UACC-257, 37.7 µM (inactive).
